Assay results as given in the NIST ThermoML archive (doi:10.1021/je060271a).
Values joined by “and” are separate entries in the source; they are usually repeats but may differ in a detail not shown here. Identical values can stand only once.

Details: Liquid, Vibrating tube method

CCCC(=O)OCC(COC(=O)CCC)(COC(=O)CCC)COC(=O)CCC [pentaerythritol tetrabutyrate]
Details | mass density
283.16 K, 23020 kPa | 1072.1 kg/m3
283.16 K, 23036 kPa | 1072.1 kg/m3
283.16 K, 23052 kPa | 1072.2 kg/m3
283.16 K, 23069 kPa | 1072.1 kg/m3
283.16 K, 23089 kPa | 1072.1 kg/m3
283.16 K, 23106 kPa | 1072.1 kg/m3
283.16 K, 23123 kPa | 1072.2 kg/m3
283.16 K, 23269 kPa | 1072.2 kg/m3
283.16 K, 23431 kPa | 1072.4 kg/m3
283.16 K, 23452 kPa | 1072.4 kg/m3
283.16 K, 23468 kPa | 1072.3 kg/m3
283.16 K, 23490 kPa | 1072.3 kg/m3
283.16 K, 23507 kPa | 1072.4 kg/m3
283.16 K, 23524 kPa | 1072.5 kg/m3
283.16 K, 23541 kPa | 1072.4 kg/m3
283.16 K, 23562 kPa | 1072.4 kg/m3
283.16 K, 23580 kPa | 1072.5 kg/m3
283.16 K, 23601 kPa | 1072.4 kg/m3
283.16 K, 23619 kPa | 1072.4 kg/m3
283.16 K, 23636 kPa | 1072.4 kg/m3
283.16 K, 23657 kPa | 1072.3 kg/m3
283.16 K, 23675 kPa | 1072.4 kg/m3
283.16 K, 23692 kPa | 1072.5 kg/m3
283.16 K, 23710 kPa | 1072.6 kg/m3
283.16 K, 23767 kPa | 1072.5 kg/m3
283.16 K, 23788 kPa | 1072.6 kg/m3
283.16 K, 23806 kPa | 1072.5 kg/m3
283.16 K, 23824 kPa | 1072.5 kg/m3
283.16 K, 23846 kPa | 1072.6 kg/m3
283.16 K, 23864 kPa | 1072.6 kg/m3
283.16 K, 24034 kPa | 1072.7 kg/m3
283.16 K, 24056 kPa | 1072.8 kg/m3
283.16 K, 24075 kPa | 1072.7 kg/m3
283.16 K, 24094 kPa | 1072.7 kg/m3
283.16 K, 24114 kPa | 1072.6 kg/m3
283.16 K, 24135 kPa | 1072.6 kg/m3
283.16 K, 24154 kPa | 1072.8 kg/m3
283.16 K, 24172 kPa | 1072.7 kg/m3
283.16 K, 24191 kPa | 1072.6 kg/m3
283.16 K, 24213 kPa | 1072.7 kg/m3
283.16 K, 24231 kPa | 1072.8 kg/m3
283.16 K, 24254 kPa | 1072.9 kg/m3
283.16 K, 24332 kPa | 1072.7 kg/m3
283.16 K, 24351 kPa | 1072.9 kg/m3
283.16 K, 24370 kPa | 1072.7 kg/m3
283.16 K, 24392 kPa | 1072.7 kg/m3
283.16 K, 24412 kPa | 1072.8 kg/m3
283.16 K, 24431 kPa | 1072.9 kg/m3
283.16 K, 24453 kPa | 1072.9 kg/m3
283.16 K, 24472 kPa | 1072.9 kg/m3
283.16 K, 24494 kPa | 1072.9 kg/m3
283.16 K, 24514 kPa | 1072.9 kg/m3
283.16 K, 24532 kPa | 1072.9 kg/m3
283.16 K, 24551 kPa | 1072.9 kg/m3
283.16 K, 24574 kPa | 1072.9 kg/m3
283.16 K, 24593 kPa | 1072.9 kg/m3
283.16 K, 24613 kPa | 1073 kg/m3
283.16 K, 24636 kPa | 1072.9 kg/m3
283.16 K, 24656 kPa | 1073 kg/m3
283.16 K, 24989 kPa | 1073.1 kg/m3
283.16 K, 25506 kPa | 1073.5 kg/m3
283.16 K, 25531 kPa | 1073.5 kg/m3
283.16 K, 25552 kPa | 1073.5 kg/m3
283.16 K, 25573 kPa | 1073.4 kg/m3
283.16 K, 26529 kPa | 1073.9 kg/m3
283.16 K, 26552 kPa | 1074 kg/m3
283.16 K, 26575 kPa | 1074 kg/m3
283.16 K, 26603 kPa | 1073.9 kg/m3
283.16 K, 26626 kPa | 1074 kg/m3
283.16 K, 26649 kPa | 1074 kg/m3
283.16 K, 26676 kPa | 1073.9 kg/m3
283.16 K, 26698 kPa | 1074 kg/m3
283.16 K, 29351 kPa | 1075.5 kg/m3
283.16 K, 29380 kPa | 1075.4 kg/m3
283.16 K, 29409 kPa | 1075.5 kg/m3
283.16 K, 33957 kPa | 1077.9 kg/m3
283.16 K, 34005 kPa | 1077.8 kg/m3
283.16 K, 34045 kPa | 1078 kg/m3
283.16 K, 34086 kPa | 1077.9 kg/m3
283.16 K, 34136 kPa | 1078 kg/m3
283.16 K, 34523 kPa | 1078 kg/m3
283.16 K, 34524 kPa | 1078.1 kg/m3
283.16 K, 34525 kPa | 1078.1 kg/m3 and 1078 kg/m3
283.16 K, 34526 kPa | 1078.2 kg/m3 and 1078.1 kg/m3
283.16 K, 34527 kPa | 1078.1 kg/m3 and 1078.2 kg/m3
283.16 K, 34528 kPa | 1078.2 kg/m3 and 1078.1 kg/m3
283.16 K, 34529 kPa | 1078.1 kg/m3
283.17 K, 5010.1 kPa | 1062 kg/m3
283.17 K, 5010.7 kPa | 1062.1 kg/m3
283.17 K, 5010.8 kPa | 1062 kg/m3
283.17 K, 5011 kPa | 1062 kg/m3
283.17 K, 5011.2 kPa | 1062 kg/m3 and 1062.1 kg/m3
283.17 K, 5011.5 kPa | 1062.1 kg/m3
283.17 K, 5026.1 kPa | 1062 kg/m3
283.17 K, 5026.2 kPa | 1061.9 kg/m3
283.17 K, 5026.4 kPa | 1062 kg/m3
283.17 K, 5482.5 kPa | 1062.3 kg/m3
283.17 K, 5493.4 kPa | 1062.3 kg/m3
283.17 K, 5500 kPa | 1062.3 kg/m3
283.17 K, 5505.1 kPa | 1062.3 kg/m3
283.17 K, 6286.6 kPa | 1062.7 kg/m3
283.17 K, 6293.2 kPa | 1062.8 kg/m3
283.17 K, 34163 kPa | 1077.8 kg/m3
283.17 K, 34186 kPa | 1077.9 kg/m3
283.17 K, 34206 kPa | 1078 kg/m3
283.17 K, 34224 kPa | 1077.9 kg/m3
283.17 K, 34234 kPa | 1077.9 kg/m3
283.17 K, 34519 kPa | 1078.2 kg/m3 and 1078.1 kg/m3
283.17 K, 34520 kPa | 1078.1 kg/m3
283.17 K, 34521 kPa | 1078.2 kg/m3 and 1078.1 kg/m3
283.17 K, 34522 kPa | 1078 kg/m3 and 1078.1 kg/m3
283.17 K, 34523 kPa | 1078.2 kg/m3
283.17 K, 34524 kPa | 1078.2 kg/m3
303.15 K, 13139 kPa | 1050.5 kg/m3
303.15 K, 20352 kPa | 1054.9 kg/m3
303.15 K, 20397 kPa | 1055 kg/m3
303.15 K, 20435 kPa | 1055.1 kg/m3
303.15 K, 21135 kPa | 1055.3 kg/m3
303.15 K, 21185 kPa | 1055.4 kg/m3
303.15 K, 21226 kPa | 1055.4 kg/m3
303.15 K, 21276 kPa | 1055.5 kg/m3
303.15 K, 21416 kPa | 1055.6 kg/m3
303.15 K, 32925 kPa | 1062.1 kg/m3
303.15 K, 32967 kPa | 1062.1 kg/m3
303.15 K, 33008 kPa | 1062.1 kg/m3
303.15 K, 33049 kPa | 1062.2 kg/m3
303.16 K, 104.1 kPa | 1042.1 kg/m3
303.16 K, 104.5 kPa | 1042.2 kg/m3
303.16 K, 105.2 kPa | 1042.1 kg/m3
303.16 K, 105.7 kPa | 1042.2 kg/m3
303.16 K, 106 kPa | 1042.3 kg/m3
303.16 K, 106.2 kPa | 1042.2 kg/m3
303.16 K, 106.4 kPa | 1042.2 kg/m3
303.16 K, 106.7 kPa | 1042.3 kg/m3
303.16 K, 108.3 kPa | 1042.3 kg/m3
303.16 K, 112.7 kPa | 1042.2 kg/m3
303.16 K, 117.7 kPa | 1042.3 kg/m3
303.16 K, 124.5 kPa | 1042.2 kg/m3
303.16 K, 132.1 kPa | 1042.1 kg/m3
303.16 K, 137.5 kPa | 1042.1 kg/m3
303.16 K, 143.9 kPa | 1042.3 kg/m3
303.16 K, 150.9 kPa | 1042.3 kg/m3
303.16 K, 159.9 kPa | 1042.2 kg/m3
303.16 K, 169 kPa | 1042.2 kg/m3
303.16 K, 180.8 kPa | 1042.3 kg/m3
303.16 K, 192.3 kPa | 1042.2 kg/m3
303.16 K, 204.8 kPa | 1042.2 kg/m3
